Results from publication PMC7721803, “Development of a penem antibiotic against Mycobacteroides abscessus” (Communications Biology, 2020).

Key:
[1] = PK simulation with one-compartmental model (plasma-free drug, fT>MIC); design: species or system BALB/c mice
Description: All procedures involving mice were approved by the Animal Care and Use Committee of Johns Hopkins University. T405 was dissolved in PBS. […] Blood was sampled from three mice per group per time point by mandibular vein puncture or cardiac puncture at the following time points: 5, 15, 30, 60, 120, and 240 min post-dose. Plasma was separated in heparin-containing tubes and frozen. […] Concentration–time data were analyzed by standard non-compartmental and compartmental techniques using WinNonlin (version 7.0; Pharsight, Mountain View, CA). […] A plasma free drug fraction of 2% of the total drug concentration was included in the simulations.

[2] = Stability in mouse plasma; assay type: in vitro ADME; conditions: 5 μM, 37 °C, over 4 h

SMILES: C[C@@H](O)C1C(=O)N2C(C(=O)O)=C(SC3CN(C4=NCCS4)C3)SC12 (stereo in doubt) [T405]
- simulated plasma-free T405 concentration ([1]; 150mg/kg alone, 2 h): 3156 ng/mL
- simulated plasma-free T405 concentration ([1]; 150mg/kg alone, 4 h): 790 ng/mL
- simulated plasma-free T405 concentration ([1]; 150mg/kg alone, 6 h): 178.58 ng/mL
- simulated plasma-free T405 concentration ([1]; 150mg/kg alone, 8 h): 41.2 ng/mL
- simulated plasma-free T405 concentration ([1]; 150mg/kg alone, 10 h): 9.51 ng/mL
- simulated plasma-free T405 concentration ([1]; 150mg/kg alone, 12 h): 2.19 ng/mL
- simulated plasma-free T405 concentration ([1]; 150mg/kg alone, 16 h): 0.12 ng/mL
- simulated plasma-free T405 concentration ([1]; 150mg/kg alone, 20 h): 0.01 ng/mL
- simulated plasma-free T405 concentration ([1]; 150mg/kg alone, 24 h): 0 ng/mL
- simulated plasma-free T405 concentration ([1]; 300mg/kg alone, 0.083 h): 37440 ng/mL
- simulated plasma-free T405 concentration ([1]; 300mg/kg alone, 0.25 h): 39280 ng/mL
- simulated plasma-free T405 concentration ([1]; 300mg/kg alone, 0.5 h): 29352 ng/mL
- simulated plasma-free T405 concentration ([1]; 300mg/kg alone, 1 h): 14552 ng/mL
- simulated plasma-free T405 concentration ([1]; 300mg/kg alone, 2 h): 6312 ng/mL
- simulated plasma-free T405 concentration ([1]; 300mg/kg alone, 4 h): 1580 ng/mL
- simulated plasma-free T405 concentration ([1]; 300mg/kg alone, 6 h): 357.16 ng/mL
- simulated plasma-free T405 concentration ([1]; 300mg/kg alone, 8 h): 82.4 ng/mL
- simulated plasma-free T405 concentration ([1]; 300mg/kg alone, 10 h): 19.01 ng/mL
- simulated plasma-free T405 concentration ([1]; 300mg/kg alone, 12 h): 4.39 ng/mL
- simulated plasma-free T405 concentration ([1]; 300mg/kg alone, 16 h): 0.23 ng/mL
- simulated plasma-free T405 concentration ([1]; 300mg/kg alone, 20 h): 0.01 ng/mL
- simulated plasma-free T405 concentration ([1]; 300mg/kg alone, 24 h): 0 ng/mL
- predicted free drug time above MIC (fT>MIC) ([1]; 300 mg/kg twice daily, in the presence of avibactam): above 40%
- simulated plasma-free T405 concentration ([1]; 450mg/kg alone, 0.083 h): 56160 ng/mL
- simulated plasma-free T405 concentration ([1]; 450mg/kg alone, 0.25 h): 58920 ng/mL
- simulated plasma-free T405 concentration ([1]; 450mg/kg alone, 0.5 h): 44028 ng/mL
- simulated plasma-free T405 concentration ([1]; 450mg/kg alone, 1 h): 21828 ng/mL
- simulated plasma-free T405 concentration ([1]; 450mg/kg alone, 2 h): 9468 ng/mL
- simulated plasma-free T405 concentration ([1]; 450mg/kg alone, 4 h): 2370 ng/mL
- simulated plasma-free T405 concentration ([1]; 450mg/kg alone, 6 h): 535.74 ng/mL
- simulated plasma-free T405 concentration ([1]; 450mg/kg alone, 8 h): 123.6 ng/mL
- simulated plasma-free T405 concentration ([1]; 450mg/kg alone, 10 h): 28.52 ng/mL
- simulated plasma-free T405 concentration ([1]; 450mg/kg alone, 12 h): 6.58 ng/mL
- simulated plasma-free T405 concentration ([1]; 450mg/kg alone, 16 h): 0.35 ng/mL
- simulated plasma-free T405 concentration ([1]; 450mg/kg alone, 20 h): 0.02 ng/mL
- simulated plasma-free T405 concentration ([1]; 450mg/kg alone, 24 h): 0 ng/mL
- predicted free drug time above MIC (fT>MIC) ([1]; 450 mg/kg twice daily with probenecid, in absence of avibactam): 54%
- predicted free drug time above MIC (fT>MIC) ([1]; 450 mg/kg twice daily with probenecid, in presence of avibactam): 72%
- predicted free drug time above MIC (fT>MIC) ([1]; 450 mg/kg twice daily, free fraction 2%, MIC 0.5 µg/mL (ATCC 19977 in presence of avibactam)): 48%
- predicted free drug time above MIC (fT>MIC) ([1]; 450 mg/kg twice daily, free fraction 2%, MIC 2 µg/mL (absence of avibactam)): 35%
- simulated plasma-free T405 concentration ([1]; 450mg/kg+Prob (with probenecid), 0.083 h): 48480 ng/mL
- simulated plasma-free T405 concentration ([1]; 450mg/kg+Prob (with probenecid), 0.25 h): 52560 ng/mL
- simulated plasma-free T405 concentration ([1]; 450mg/kg+Prob (with probenecid), 0.5 h): 44640 ng/mL
- simulated plasma-free T405 concentration ([1]; 450mg/kg+Prob (with probenecid), 1 h): 29664 ng/mL
- simulated plasma-free T405 concentration ([1]; 450mg/kg+Prob (with probenecid), 2 h): 16020 ng/mL
- simulated plasma-free T405 concentration ([1]; 450mg/kg+Prob (with probenecid), 4 h): 6636 ng/mL
- simulated plasma-free T405 concentration ([1]; 450mg/kg+Prob (with probenecid), 6 h): 2425.1 ng/mL
- simulated plasma-free T405 concentration ([1]; 450mg/kg+Prob (with probenecid), 8 h): 908.73 ng/mL
- simulated plasma-free T405 concentration ([1]; 450mg/kg+Prob (with probenecid), 10 h): 340.52 ng/mL
- simulated plasma-free T405 concentration ([1]; 450mg/kg+Prob (with probenecid), 12 h): 127.6 ng/mL
- simulated plasma-free T405 concentration ([1]; 450mg/kg+Prob (with probenecid), 16 h): 17.92 ng/mL
- simulated plasma-free T405 concentration ([1]; 450mg/kg+Prob (with probenecid), 20 h): 2.52 ng/mL
- simulated plasma-free T405 concentration ([1]; 450mg/kg+Prob (with probenecid), 24 h): 0.35 ng/mL
- stability in mouse plasma [2]: no measurable degradation
